Biological target: T1, IL-17A/A (Homo sapiens, UniProt Q16552)
T1 construct: purchased Genscript Z03228
T1 sequence (Q16552 24-155): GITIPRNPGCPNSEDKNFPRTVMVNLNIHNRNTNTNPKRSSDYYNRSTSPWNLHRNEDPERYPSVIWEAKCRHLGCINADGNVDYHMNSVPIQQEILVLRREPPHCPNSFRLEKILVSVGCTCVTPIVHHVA
Experiment: HEK-Blue IL-17A/A inhibition assay (SEAP reporter)
Type: cell-based
Conditions: HEK-Blue cells (HEK 293 expressing IL-17RA, IL-17RC, Act1); IL-17A/A stimulation; 20 hours; SEAP read at A630; 4-parameter fit
Summary of the method: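 HEK 293 cells engineered with IL-17RA, IL-17RC and Act1 (NFκB-driven SEAP) given titrated compound (top final 10, 1 or 0.3 uM; 0.1% DMSO) just before IL-17A/A, then incubated 20 h. SEAP in media developed with Quanti-Blue, read at A630; IC50 by 4-parameter nonlinear fit.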

Row | IC50 [µM] | Structure (SMILES)
1 | > 1 | CC(C)n1nccc1C(=O)N[C@H](C(=O)Nc1ccc([C@H](C)C(=O)N[C@H](C)C(F)(F)F)cc1F)C(C1CC1)C1CC1 [Compound 54, N-((S)-1,1-dicyclopropyl-3-((2-fluoro-4-((S)-1-oxo-1-(((R)-1,1,1-trifluoropropan-2-yl)amino)propan-2-yl)phenyl)amino)-3-oxopropan-2-yl)-1-isopropyl-1H-pyrazole-5-carboxamide]
2 | 0.1 to 1 | CC(C)n1nccc1C(=O)N[C@H](C(=O)Nc1ccc([C@H](C)C(=O)N[C@@H](C)C(F)(F)F)cc1F)C(C1CC1)C1CC1 [Compound 55, N-((S)-1,1-dicyclopropyl-3-((2-fluoro-4-((S)-1-oxo-1-(((S)-1,1,1-trifluoropropan-2-yl)amino)propan-2-yl)phenyl)amino)-3-oxopropan-2-yl)-1-isopropyl-1H-pyrazole-5-carboxamide]
3 | 0.1 to 1 | CC(C)n1nccc1C(=O)N[C@H](C(=O)Nc1ccc([C@H](C)C(=O)N2CCOc3ccccc3C2C(F)(F)F)cc1F)C(C1CC1)C1CC1 (stereo partly drawn) [Compound 56, N-((2S)-1,1-dicyclopropyl-3-((2-fluoro-4-((2S)-1-oxo-1-(5-(trifluoromethyl)-2,3-dihydrobenzo[f][1,4]oxazepin-4(5H)-yl)propan-2-yl)phenyl)amino)-3-oxopropan-2-yl)-1-isopropyl-1H-pyrazole-5-carboxamide]
4 | 0.1 to 1 | CC(C)n1nccc1C(=O)N[C@H](C(=O)Nc1ccc([C@H](C)C(=O)NCC(C)(F)F)cc1F)C(C1CC1)C1CC1 [Compound 57, N-((S)-1,1-dicyclopropyl-3-((4-((S)-1-((2,2-difluoropropyl)amino)-1-oxopropan-2-yl)-2-fluorophenyl)amino)-3-oxopropan-2-yl)-1-isopropyl-1H-pyrazole-5-carboxamide]
5 | 0.1 to 1 | CC(C)n1nccc1C(=O)N[C@H](C(=O)Nc1ccc([C@H](C)C(=O)N2C[C@H](F)C[C@H]2C(F)(F)F)cc1F)C(C1CC1)C1CC1 [Compound 58, N-((S)-1,1-dicyclopropyl-3-((2-fluoro-4-((S)-1-((2S,4R)-4-fluoro-2-(trifluoromethyl)pyrrolidin-1-yl)-1-oxopropan-2-yl)phenyl)amino)-3-oxopropan-2-yl)-1-isopropyl-1H-pyrazole-5-carboxamide]
6 | > 1 | CC(C)n1nccc1C(=O)N[C@H](C(=O)Nc1ccc([C@H](C)C(=O)N2C[C@@H](F)C[C@@H]2C(F)(F)F)cc1F)C(C1CC1)C1CC1 [Compound 59, N-((S)-1,1-dicyclopropyl-3-((2-fluoro-4-((S)-1-((2R^4S)-4-fluoro-2-(trifluoromethyl)pyrrolidin-1-yl)-1-oxopropan-2-yl)phenyl)amino)-3-oxopropan-2-yl)-1-isopropyl-1H-pyrazole-5-carboxamide]
7 | < 0.1 | CC(C)n1nccc1C(=O)N[C@H](C(=O)Nc1ccc([C@H](C)C(=O)N2C[C@@H](F)C[C@H]2C(F)(F)F)cc1F)C(C1CC1)C1CC1 [Compound 60, N-((S)-1,1-dicyclopropyl-3-((2-fluoro-4-((S)-1-((2S,4S)-4-fluoro-2-(trifluoromethyl)pyrrolidin-1-yl)-1-oxopropan-2-yl)phenyl)amino)-3-oxopropan-2-yl)-1-isopropyl-1H-pyrazole-5-carboxamide]
8 | < 0.1 | CCOC(=O)CC(NC(=O)[C@@H](C)c1ccc(NC(=O)[C@@H](NC(=O)c2ccnn2C(C)C)C(C2CC2)C2CC2)c(F)c1)C(F)(F)F (stereo partly drawn) [Compound 61, ethyl 3-((S)-2-(4-((S)-3,3-dicyclopropyl-2-(1-isopropyl-1H-pyrazole-5-carboxamido)propanamido)-3-fluorophenyl)propanamido)-4,4,4-trifluorobutanoate]
9 | 0.1 to 1 | COC(=O)C(NC(=O)[C@@H](C)c1ccc(NC(=O)[C@@H](NC(=O)c2ccnn2C(C)C)C(C2CC2)C2CC2)c(F)c1)C(F)(F)F (stereo partly shown) [Compound 62]
10 | < 0.1 | CC(C)n1nccc1C(=O)N[C@H](C(=O)Nc1ccc([C@H](C)C(=O)NC(C(N)=O)C(F)(F)F)cc1F)C(C1CC1)C1CC1 (stereo partly drawn) [Compound 63, N-((2S)-1-((4-((2S)-1-((3-amino-1,1-trifluoro-3-oxopropan-2-yl)amino)-1-oxopropan-2-yl)-2-fluorophenyl)amino)-3,3-dicyclopropyl-1-oxopropan-2-yl)-1-isopropyl-1H-pyrazole-5-carboxamide]
11 | 0.1 to 1 | CC(C)n1nccc1C(=O)N[C@H](C(=O)Nc1ccc([C@H](C)C(=O)N2CC[C@H]2C(F)(F)F)cc1F)C(C1CC1)C1CC1 [Compound 64, N-((S)-1,1-dicyclopropyl-3-((2-fluoro-4-((S)-1-oxo-1-((S)-2-(trifluoromethyl)azetidin-1-yl)propan-2-yl)phenyl)amino)-3-oxopropan-2-yl)-1-isopropyl-1H-pyrazole-5-carboxamide]
12 | > 1 | CC(C)n1nccc1C(=O)N[C@H](C(=O)Nc1ccc([C@H](C)C(=O)NCC(F)(F)CO)cc1F)C(C1CC1)C1CC1 [Compound 65, N-((S)-1,1-dicyclopropyl-3-((4-((S)-1-((2,2-difluoro-3-hydroxypropyl)amino)-1-oxopropan-2-yl)-2-fluorophenyl)amino)-3-oxopropan-2-yl)-1-isopropyl-1H-pyrazole-5-carboxamide]
13 | 0.1 to 1 | CC(C)n1nccc1C(=O)N[C@H](C(=O)Nc1ccc([C@H](C)C(=O)NC(c2ccccc2)C(F)(F)F)cc1F)C(C1CC1)C1CC1 (stereo partly drawn) [Compound 66, N-((2S)-1,1-dicyclopropyl-3-((2-fluoro-4-((2S)-1-oxo-1-((2,2,2-trifluoro-1-phenylethyl)amino)propan-2-yl)phenyl)amino)-3-oxopropan-2-yl)-1-isopropyl-1H-pyrazole-5-carboxamide]
14 | < 0.1 | CC(C)n1nccc1C(=O)N[C@H](C(=O)Nc1ccc([C@H](C)C(=O)NC(C2CCOC2)C(F)(F)F)cc1F)C(C1CC1)C1CC1 (stereo partly drawn) [Compound 67, N-[(1S)-1-(dicyclopropylmethyl)-2-[2-fluoro-4-[(1S)-1-methyl-2-oxo-2-[(2,2,2-trifluoro-1-tetrahydrofuran-3-yl-ethyl)amino]ethyl]anilino]-2-oxo-ethyl]-2-isopropyl-pyrazole-3-carboxamide]
15 | < 0.1 | CCn1nccc1C(=O)N[C@H](C(=O)Nc1ccc([C@H](C)C(=O)N(C)CC(F)(F)F)cc1F)C(C1CC1)C1CC1 [Compound 68, N-((S)-1,1-dicyclopropyl-3-((2-fluoro-4-((S)-1-(methyl(2,2,2-trifluoroethyl)amino)-1-oxopropan-2-yl)phenyl)amino)-3-oxopropan-2-yl)-1-ethyl-1H-pyrazole-5-carboxamide]
16 | < 0.1 | CCn1nccc1C(=O)N[C@H](C(=O)Nc1ccc([C@H](C)C(=O)N(C)CC(F)(F)F)cc1F)[C@H]1CC[C@H](C)CC1 [Compound 71, -ethyl-N-((S)-2-((2-fluoro-4-((S)-1-(methyl(2,2,2-trifluoroethyl)amino)-1-oxopropan-2-yl)phenyl)amino)-1-((1r,4S)-4-methylcyclohexyl)-2-oxoethyl)-1H-pyrazole-5-carboxamide]
17 | 0.1 to 1 | CC[C@@H](c1ccc(Cl)cc1)[C@H](NC(=O)c1ccnn1CC)C(=O)Nc1ccc([C@H](C)C(=O)N(C)CC(F)(F)F)cc1F [Compound 72, N-((2S,3S)-3-(4-chlorophenyl)-1-((2-fluoro-4-((S)-1-(methyl(2,2,2-trifluoroethyl)amino)-1-oxopropan-2-yl)phenyl)amino)-1-oxopentan-2-yl)-1-ethyl-1H-pyrazole-5-carboxamide]
18 | > 1 | CCn1nccc1C(=O)N[C@H](C(=O)Nc1ccc([C@H](C)C(=O)N(C)CC(F)(F)F)cc1F)[C@H](c1ccccc1Cl)C(C)C [Compound 73, N-((2S,3S)-3-(2-chlorophenyl)-1-((2-fluoro-4-((S)-1-(methyl(2,2,2-trifluoroethyl)amino)-1-oxopropan-2-yl)phenyl)amino)-4-methyl-1-oxopentan-2-yl)-1-ethyl-1H-pyrazole-5-carboxamide]
19 | 0.1 to 1 | CCn1nccc1C(=O)N[C@H](C(=O)Nc1ccc([C@H](C)C(=O)N(C)CC(F)(F)F)cc1F)C1CCC(F)(F)CC1 [Compound 74, N-((S)-1-(4,4-difluorocyclohexyl)-2-((2-fluoro-4-((S)-1-(methyl(2,2,2-trifluoroethyl)amino)-1-oxopropan-2-yl)phenyl)amino)-2-oxoethyl)-1-ethyl-1H-pyrazole-5-carboxamide]
20 | 0.1 to 1 | CCn1nccc1C(=O)N[C@H](C(=O)Nc1ccc([C@H](C)C(=O)N(C)CC(F)(F)F)cc1F)C1CCC2(CC1)CC2 [Compound 75, 1-ethyl-N-((S)-2-((2-fluoro-4-((S)-1-(methyl(2,2,2-trifluoroethyl)amino)-1-oxopropan-2-yl)phenyl)amino)-2-oxo-1-(spiro[2.5]octan-6-yl)ethyl)-1H-pyrazole-5-carboxamide]
21 | < 0.1 | CC(C)n1nccc1C(=O)N[C@H](C(=O)Nc1ccc([C@H](C)C(=O)N(C)CC(F)(F)F)cc1F)C(C1CC1)C1CC1 [Compound 78, N-((S)-1,1-dicyclopropyl-3-((2-fluoro-4-((S)-1-(methyl(2,2,2-trifluoroethyl)amino)-1-oxopropan-2-yl)phenyl)amino)-3-oxopropan-2-yl)-1-isopropyl-1H-pyrazole-5-carboxamide]
22 | 0.1 to 1 | CCn1ncc(F)c1C(=O)N[C@H](C(=O)Nc1ccc([C@H](C)C(=O)N(C)CC(F)(F)F)cc1F)C(C1CC1)C1CC1 [Compound 79, N-((S)-1,1-dicyclopropyl-3-((2-fluoro-4-((S)-1-(methyl(2,2,2-trifluoroethyl)amino)-1-oxopropan-2-yl)phenyl)amino)-3-oxopropan-2-yl)-1-ethyl-4-fluoro-1H-pyrazole-5-carboxamide]

From patent publication US20240376056A1, “PHENYL ACETAMIDE BASED IL-17A MODULATORS AND USES THEREOF” (DiCE Alpha, Inc., priority 2021, published 2024)
